Measured values as given in PubChem BioAssay (NCI).
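Five compound concentrations were applied to cells in 96-well plates for 48 hours; endpoints were derived by simple linear interpolation of the resulting dose-response curve. Abbreviation: GI50, concentration required for 50% inhibition of growth. TGI denotes the concentration required for complete inhibition of growth.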

What was measured:
Experiment in all cases: NCI-60 cell line screen, 48 h
RXF 393 renal = tested on: RXF 393 renal
OVCAR-8 ovarian = tested on: OVCAR-8 ovarian
OVCAR-3 ovarian = tested on: OVCAR-3 ovarian
SK-MEL-5 melanoma = tested on: SK-MEL-5 melanoma
PC-3 prostate = tested on: PC-3 prostate
MDA-MB-231 breast = tested on: MDA-MB-231 breast
SR leukemia = tested on: SR leukemia
K-562 leukemia = tested on: K-562 leukemia
T-47D breast = tested on: T-47D breast
NCI/ADR-RES ovarian = tested on: NCI/ADR-RES ovarian
DU-145 prostate = tested on: DU-145 prostate
MDA-MB-435 = tested on: MDA-MB-435
KM12 colon = tested on: KM12 colon
UACC-62 melanoma = tested on: UACC-62 melanoma
HT29 colon = tested on: HT29 colon
U251 CNS = tested on: U251 CNS
SK-OV-3 ovarian = tested on: SK-OV-3 ovarian
ACHN renal = tested on: ACHN renal
SF-295 CNS = tested on: SF-295 CNS
IGROV1 ovarian = tested on: IGROV1 ovarian
NCI-H460 lung = tested on: NCI-H460 lung
SK-MEL-2 melanoma = tested on: SK-MEL-2 melanoma
LOX IMVI melanoma = tested on: LOX IMVI melanoma
NCI-H226 lung = tested on: NCI-H226 lung
SW-620 colon = tested on: SW-620 colon
HCT-15 colon = tested on: HCT-15 colon
HOP-92 NSCLC = tested on: HOP-92 NSCLC
786-0 renal = tested on: 786-0 renal
RPMI-8226 leukemia = tested on: RPMI-8226 leukemia
SNB-75 CNS = tested on: SNB-75 CNS
BT-549 breast = tested on: BT-549 breast
A549 NSCLC = tested on: A549 NSCLC
SF-268 CNS = tested on: SF-268 CNS
HOP-62 NSCLC = tested on: HOP-62 NSCLC
OVCAR-4 ovarian = tested on: OVCAR-4 ovarian
UACC-257 melanoma = tested on: UACC-257 melanoma
OVCAR-5 ovarian = tested on: OVCAR-5 ovarian
SK-MEL-28 melanoma = tested on: SK-MEL-28 melanoma
MCF7 breast = tested on: MCF7 breast
CCRF-CEM leukemia = tested on: CCRF-CEM leukemia
HS 578T breast = tested on: HS 578T breast
SNB-19 CNS = tested on: SNB-19 CNS
HL-60(TB) leukemia = tested on: HL-60(TB) leukemia
TK-10 renal = tested on: TK-10 renal
COLO 205 colon = tested on: COLO 205 colon
SN12C renal = tested on: SN12C renal
NCI-H522 lung = tested on: NCI-H522 lung
M14 melanoma = tested on: M14 melanoma
EKVX NSCLC = tested on: EKVX NSCLC
NCI-H23 lung = tested on: NCI-H23 lung
HCT-116 colon = tested on: HCT-116 colon
HCC-2998 colon = tested on: HCC-2998 colon
MOLT-4 leukemia = tested on: MOLT-4 leukemia
A498 renal = tested on: A498 renal
MALME-3M melanoma = tested on: MALME-3M melanoma
UO-31 renal = tested on: UO-31 renal
CAKI-1 renal = tested on: CAKI-1 renal

What does the source list for `Cc1ccc(/C=C2\COc3ccc(O)c(O)c3C2=O)cc1`?
GI50 (RXF 393 renal): 372 nM; TGI (RXF 393 renal): 1160 nM; GI50 (OVCAR-8 ovarian): 404 nM; TGI (OVCAR-8 ovarian): > 100000 nM; GI50 (OVCAR-3 ovarian): 386 nM; TGI (OVCAR-3 ovarian): 1400 nM; GI50 (SK-MEL-5 melanoma): 320 nM; TGI (SK-MEL-5 melanoma): 1260 nM; GI50 (PC-3 prostate): 505 nM; TGI (PC-3 prostate): 3740 nM; GI50 (MDA-MB-231 breast): 340 nM; TGI (MDA-MB-231 breast): 3780 nM; GI50 (SR leukemia): 358 nM; TGI (SR leukemia): > 100000 nM; GI50 (K-562 leukemia): 329 nM; TGI (K-562 leukemia): > 100000 nM; GI50 (T-47D breast): 951 nM; TGI (T-47D breast): 6940 nM; GI50 (NCI/ADR-RES ovarian): 343 nM; TGI (NCI/ADR-RES ovarian): > 100000 nM; GI50 (DU-145 prostate): 394 nM; TGI (DU-145 prostate): 1710 nM; GI50 (MDA-MB-435): 233 nM; TGI (MDA-MB-435): 764 nM; GI50 (KM12 colon): 838 nM; TGI (KM12 colon): 3000 nM; GI50 (UACC-62 melanoma): 407 nM; TGI (UACC-62 melanoma): 1650 nM; GI50 (HT29 colon): 2780 nM; TGI (HT29 colon): 9050 nM; GI50 (U251 CNS): 922 nM; TGI (U251 CNS): 2290 nM; GI50 (SK-OV-3 ovarian): 395 nM; TGI (SK-OV-3 ovarian): 35100 nM; GI50 (ACHN renal): 639 nM; TGI (ACHN renal): 2000 nM; GI50 (SF-295 CNS): 2040 nM; TGI (SF-295 CNS): 9640 nM; GI50 (IGROV1 ovarian): 559 nM; TGI (IGROV1 ovarian): 2620 nM; GI50 (NCI-H460 lung): 1840 nM; TGI (NCI-H460 lung): 5000 nM; GI50 (SK-MEL-2 melanoma): 555 nM; TGI (SK-MEL-2 melanoma): 3650 nM; GI50 (LOX IMVI melanoma): 329 nM; TGI (LOX IMVI melanoma): 1340 nM; GI50 (NCI-H226 lung): 2130 nM; TGI (NCI-H226 lung): 6240 nM; GI50 (SW-620 colon): 854 nM; TGI (SW-620 colon): 3110 nM; GI50 (HCT-15 colon): 352 nM; TGI (HCT-15 colon): 6410 nM; GI50 (HOP-92 NSCLC): 887 nM; TGI (HOP-92 NSCLC): 5770 nM; GI50 (786-0 renal): 555 nM; TGI (786-0 renal): 2490 nM; GI50 (RPMI-8226 leukemia): 252 nM; TGI (RPMI-8226 leukemia): 818 nM; GI50 (SNB-75 CNS): 322 nM; TGI (SNB-75 CNS): 3480 nM; GI50 (BT-549 breast): 585 nM; TGI (BT-549 breast): 2640 nM; GI50 (A549 NSCLC): 2330 nM; TGI (A549 NSCLC): 11500 nM; GI50 (SF-268 CNS): 1120 nM; TGI (SF-268 CNS): 3350 nM; GI50 (HOP-62 NSCLC): 1440 nM; TGI (HOP-62 NSCLC): 6640 nM; GI50 (OVCAR-4 ovarian): 1470 nM; TGI (OVCAR-4 ovarian): 4960 nM; GI50 (UACC-257 melanoma): 1550 nM; TGI (UACC-257 melanoma): 5380 nM; GI50 (OVCAR-5 ovarian): 1750 nM; TGI (OVCAR-5 ovarian): 3980 nM; GI50 (SK-MEL-28 melanoma): 933 nM; TGI (SK-MEL-28 melanoma): 2830 nM; GI50 (MCF7 breast): 375 nM; TGI (MCF7 breast): 9760 nM; GI50 (CCRF-CEM leukemia): 265 nM; TGI (CCRF-CEM leukemia): 1480 nM; GI50 (HS 578T breast): 362 nM; TGI (HS 578T breast): > 26400 nM; GI50 (SNB-19 CNS): 1320 nM; TGI (SNB-19 CNS): 3270 nM; GI50 (HL-60(TB) leukemia): 421 nM; TGI (HL-60(TB) leukemia): 2140 nM; GI50 (TK-10 renal): 1470 nM; TGI (TK-10 renal): 3440 nM; GI50 (COLO 205 colon): 2000 nM; TGI (COLO 205 colon): 3950 nM; GI50 (SN12C renal): 370 nM; TGI (SN12C renal): 2330 nM; GI50 (NCI-H522 lung): 185 nM; TGI (NCI-H522 lung): 461 nM; GI50 (M14 melanoma): 292 nM; TGI (M14 melanoma): 1060 nM; GI50 (EKVX NSCLC): 1280 nM; TGI (EKVX NSCLC): 4140 nM; GI50 (NCI-H23 lung): 1450 nM; TGI (NCI-H23 lung): 3800 nM; GI50 (HCT-116 colon): 1280 nM; TGI (HCT-116 colon): 2930 nM; GI50 (HCC-2998 colon): 1690 nM; TGI (HCC-2998 colon): 3280 nM; GI50 (MOLT-4 leukemia): 403 nM; TGI (MOLT-4 leukemia): > 29600 nM; GI50 (A498 renal): 249 nM; TGI (A498 renal): 1950 nM; GI50 (MALME-3M melanoma): 909 nM; TGI (MALME-3M melanoma): 3150 nM; GI50 (UO-31 renal): 465 nM; TGI (UO-31 renal): 1800 nM; GI50 (CAKI-1 renal): 765 nM; TGI (CAKI-1 renal): 2200 nM
